Legend:
α4β7/MAcDAM-1 = molecular target: T1, α4β7/MAcDAM-1 (Homo sapiens, UniProt P13612+P26010); test: Integrin activation, adhesion α4β7/MAcDAM-1; type: cell-based; conditions: 50% serum; n = 3; read-out: Integrin Selectivity EC50 α4β7/MAcDAM-1
T1 sequence (P13612 34-1032): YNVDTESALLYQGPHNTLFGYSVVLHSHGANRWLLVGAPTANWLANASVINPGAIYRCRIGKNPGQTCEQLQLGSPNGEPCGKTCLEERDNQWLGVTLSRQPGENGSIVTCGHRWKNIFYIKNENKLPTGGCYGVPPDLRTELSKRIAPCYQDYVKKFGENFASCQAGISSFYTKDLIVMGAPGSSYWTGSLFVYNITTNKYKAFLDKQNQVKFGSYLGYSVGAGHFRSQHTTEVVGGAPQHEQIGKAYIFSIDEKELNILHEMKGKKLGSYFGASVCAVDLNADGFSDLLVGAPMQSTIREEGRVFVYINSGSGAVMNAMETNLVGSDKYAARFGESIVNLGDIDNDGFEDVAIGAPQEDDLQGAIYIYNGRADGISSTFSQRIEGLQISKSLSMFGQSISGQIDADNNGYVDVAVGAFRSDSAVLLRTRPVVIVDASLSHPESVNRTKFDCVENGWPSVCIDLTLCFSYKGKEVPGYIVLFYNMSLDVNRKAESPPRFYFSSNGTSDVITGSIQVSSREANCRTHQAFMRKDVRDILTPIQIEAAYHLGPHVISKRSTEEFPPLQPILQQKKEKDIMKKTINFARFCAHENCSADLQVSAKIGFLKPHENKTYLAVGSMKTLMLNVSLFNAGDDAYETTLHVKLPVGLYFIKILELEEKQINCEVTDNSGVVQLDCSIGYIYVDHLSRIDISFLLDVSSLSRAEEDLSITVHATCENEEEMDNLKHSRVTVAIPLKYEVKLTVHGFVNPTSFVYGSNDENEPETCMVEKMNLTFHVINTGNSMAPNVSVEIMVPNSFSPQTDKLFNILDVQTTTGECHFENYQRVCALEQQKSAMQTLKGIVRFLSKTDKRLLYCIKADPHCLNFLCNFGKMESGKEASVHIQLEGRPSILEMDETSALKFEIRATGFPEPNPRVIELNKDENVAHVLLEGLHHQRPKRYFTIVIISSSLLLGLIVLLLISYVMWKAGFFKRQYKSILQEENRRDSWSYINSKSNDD
T1 sequence (P26010 20-798): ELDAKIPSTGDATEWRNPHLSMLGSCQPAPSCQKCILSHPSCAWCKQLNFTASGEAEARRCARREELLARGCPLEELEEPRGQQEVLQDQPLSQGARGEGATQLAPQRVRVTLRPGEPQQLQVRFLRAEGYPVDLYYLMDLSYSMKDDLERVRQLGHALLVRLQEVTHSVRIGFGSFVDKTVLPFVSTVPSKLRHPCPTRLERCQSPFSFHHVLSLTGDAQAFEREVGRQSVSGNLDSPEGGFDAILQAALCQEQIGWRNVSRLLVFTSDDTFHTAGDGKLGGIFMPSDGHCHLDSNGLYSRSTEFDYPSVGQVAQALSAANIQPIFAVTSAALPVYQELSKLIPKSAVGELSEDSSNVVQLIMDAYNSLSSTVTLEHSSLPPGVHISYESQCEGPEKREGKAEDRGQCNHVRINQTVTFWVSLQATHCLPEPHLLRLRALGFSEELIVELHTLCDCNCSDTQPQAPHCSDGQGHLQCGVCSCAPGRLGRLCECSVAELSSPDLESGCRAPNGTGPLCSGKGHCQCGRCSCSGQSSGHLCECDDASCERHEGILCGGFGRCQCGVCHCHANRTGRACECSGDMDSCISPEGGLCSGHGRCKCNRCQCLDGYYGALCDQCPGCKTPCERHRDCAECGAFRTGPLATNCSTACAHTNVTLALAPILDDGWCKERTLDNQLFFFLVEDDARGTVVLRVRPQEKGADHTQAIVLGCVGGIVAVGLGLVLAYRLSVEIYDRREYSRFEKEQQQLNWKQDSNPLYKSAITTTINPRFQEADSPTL
Text: (§1) Activating all integrins is necessary for firm endothelial cell adhesion for extravasation.

[1] = system: CT26 colon cancer syngeneic tumor; test: Study 3: CT26 syngeneic tumor model in Balb/c mice, treatment from +1 day after implantation; type: in vivo, Mouse (Mus musculus)
Description: Mouse colon carcinoma CT26 cells were obtained from American Type Culture Collection (ATCC), USA. Cells were grown in RPMI-1640 medium (Sigma, Cat # R6504) supplemented with 10% FBS (Invitrogen, Cat #10438-026), and 1% penicillin streptomycin (Thermo Fisher Scientific, Cat #15140-122). To establish allografts, 1 million CT26 cells were suspended in 50 μL of serum-free medium and mixed at 1:1 ratio with matrigel before implanting subcutaneously into the right flank of mice.
Prior to inoculation, the skin on the injection site was swabbed with alcohol. To establish allografts, CT26 cells were suspended in serum free medium at a concentration of (1×10^6)/50 μL, mixed with equal volume of matrigel (1:1 ratio) and 100 μL of this mixture was injected to each mouse by subcutaneous implantation using a 1 mL BD syringe attached to a 24 gauge needle.
CT26 tumor xenografts were measured after approximately 1 week of cell inoculation when they become palpable. When the average tumor volume reaches around 110 mm^3, animals were randomized into treatment groups group maintaining the average tumor volume of each group similar across groups for Study 1 and Study 2. In Study 3, the animals were randomized on the basis of body weights +1 day post cell implantation.
Tumor dimensions (length and breadth) were measured on days 0 (animal randomization based on tumor volume) and thrice weekly thereafter until study termination. Tumor volumes were calculated using the formula (b^2*l)*0.52 where l=length, b=breadth (Dusan Djokovic et al., BMC Cancer, 2010, 10:641). Tumor growth inhibition was calculated after normalizing the tumor volume on a given day to that on day 1.
Mean body weight loss and percent changes were calculated for each group. Similarly, mean tumor volume and percent tumor growth inhibition were calculated. The percent tumor growth inhibition (% TGI) as a function of anti-tumor efficacy were computed with respect to untreated vehicle control by comparing to the tumor volumes of day 1 using formula described below: % TGI=[1−(Treatment TVFinal−Treatment TVInitial)/(Control TVFinal−Control TVInitial)]*100
The test agent, Compound 1 was evaluated in CT26 syngeneic tumor model in Balb/c mice. Compound 1 was administered in mice +1 day after CT26 cell implantation. Tumors were not measurable at this time, however, tumors became palpable on day 7 and tumors were measured from that point.

α1b1/Collagen IV = α1b1/Collagen IV (Homo sapiens, UniProt P05556+P56199); test: Integrin activation, adhesion α1b1/Collagen IV; type: cell-based; set-up: key: Not Active: Not active: ≤2 fold increase in adhesion; conditions: 50% serum; n = 3
α1b1/Collagen IV, sequence (P56199 29-1179): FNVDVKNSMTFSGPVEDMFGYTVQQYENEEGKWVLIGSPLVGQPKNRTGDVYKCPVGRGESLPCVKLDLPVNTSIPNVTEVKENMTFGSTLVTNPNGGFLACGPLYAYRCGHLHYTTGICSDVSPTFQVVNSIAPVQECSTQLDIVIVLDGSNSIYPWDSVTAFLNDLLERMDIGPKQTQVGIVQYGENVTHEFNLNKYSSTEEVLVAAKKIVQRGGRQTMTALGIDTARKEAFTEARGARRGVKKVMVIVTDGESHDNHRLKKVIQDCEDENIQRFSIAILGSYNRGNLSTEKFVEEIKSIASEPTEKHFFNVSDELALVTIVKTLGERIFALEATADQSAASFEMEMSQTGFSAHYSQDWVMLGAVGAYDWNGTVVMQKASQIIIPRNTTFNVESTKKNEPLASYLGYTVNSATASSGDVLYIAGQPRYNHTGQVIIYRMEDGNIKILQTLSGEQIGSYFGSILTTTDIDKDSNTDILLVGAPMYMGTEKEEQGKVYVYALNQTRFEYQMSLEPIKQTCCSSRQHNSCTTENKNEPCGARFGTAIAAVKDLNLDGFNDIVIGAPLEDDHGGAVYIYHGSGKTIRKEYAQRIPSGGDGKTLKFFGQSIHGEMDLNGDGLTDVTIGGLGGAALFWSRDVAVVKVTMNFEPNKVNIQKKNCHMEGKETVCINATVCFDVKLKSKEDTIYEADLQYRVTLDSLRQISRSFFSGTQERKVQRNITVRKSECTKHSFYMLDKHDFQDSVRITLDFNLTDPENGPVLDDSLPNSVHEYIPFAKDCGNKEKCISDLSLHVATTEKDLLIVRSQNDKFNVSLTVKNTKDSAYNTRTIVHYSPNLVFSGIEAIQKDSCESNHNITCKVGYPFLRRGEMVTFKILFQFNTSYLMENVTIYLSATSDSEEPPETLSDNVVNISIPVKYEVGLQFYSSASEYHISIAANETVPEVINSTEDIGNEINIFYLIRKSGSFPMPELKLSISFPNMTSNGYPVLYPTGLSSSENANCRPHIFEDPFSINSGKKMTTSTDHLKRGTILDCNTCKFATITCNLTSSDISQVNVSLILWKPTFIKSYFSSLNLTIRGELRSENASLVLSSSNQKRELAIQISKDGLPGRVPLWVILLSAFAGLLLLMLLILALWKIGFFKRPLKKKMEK
α1b1/Collagen IV, sequence (P05556 21-798): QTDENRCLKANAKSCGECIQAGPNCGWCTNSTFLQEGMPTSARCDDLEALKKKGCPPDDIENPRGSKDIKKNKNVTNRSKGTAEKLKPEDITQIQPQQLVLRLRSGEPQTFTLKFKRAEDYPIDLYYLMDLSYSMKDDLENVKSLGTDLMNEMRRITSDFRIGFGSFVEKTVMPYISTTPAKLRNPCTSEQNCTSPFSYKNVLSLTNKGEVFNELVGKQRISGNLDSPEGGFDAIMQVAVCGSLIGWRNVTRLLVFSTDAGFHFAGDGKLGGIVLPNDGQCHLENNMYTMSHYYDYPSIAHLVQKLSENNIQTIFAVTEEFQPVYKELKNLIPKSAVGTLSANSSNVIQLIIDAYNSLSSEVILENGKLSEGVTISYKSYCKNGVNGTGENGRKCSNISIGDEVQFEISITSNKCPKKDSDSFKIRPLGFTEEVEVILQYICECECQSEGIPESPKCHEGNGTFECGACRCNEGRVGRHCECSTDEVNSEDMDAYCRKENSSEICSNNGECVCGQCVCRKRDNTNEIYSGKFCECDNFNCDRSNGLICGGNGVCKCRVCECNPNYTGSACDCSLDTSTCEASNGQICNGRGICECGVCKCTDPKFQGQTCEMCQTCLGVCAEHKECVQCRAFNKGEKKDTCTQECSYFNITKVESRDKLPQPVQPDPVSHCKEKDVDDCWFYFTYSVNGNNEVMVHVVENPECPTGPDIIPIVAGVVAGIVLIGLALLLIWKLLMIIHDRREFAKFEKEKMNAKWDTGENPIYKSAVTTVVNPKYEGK
Text: as §1

O=C(OCCOCCOCCOC(=O)N(Cc1cccs1)Cc1cccs1)N(Cc1cccs1)Cc1cccs1 [Compound 1, 3-oxo-1-(2-thienyl)-2-(2-thienylmethyl)-4,7,10-trioxa-2-azadodecan-12-yl bis(2-thienylmethyl)carbamate]
EC50 (α4β7/MAcDAM-1): 10 ± 2.1 µM | Average Tumor Volume, Mean ([1]; 1 mg/kg BID (IP), Day 7): 91 mm^3 | Average Tumor Volume, Mean ([1]; 1 mg/kg BID (IP), Day 10): 159 mm^3 | Average Tumor Volume, Mean ([1]; 1 mg/kg BID (IP), Day 12): 269 mm^3 | Average Tumor Volume, Mean ([1]; 1 mg/kg BID (IP), Day 14): 342^‡ mm^3 | Average Tumor Volume, Mean ([1]; 1 mg/kg BID (IP), Day 16): 512^‡‡ mm^3 | Average Tumor Volume, Mean ([1]; 1 mg/kg BID (IP), Day 18): 689^‡‡ mm^3 | Average Tumor Volume, Mean ([1]; 1 mg/kg IP QD, Day 7): 96 mm^3 | Average Tumor Volume, Mean ([1]; 1 mg/kg IP QD, Day 10): 193 mm^3 | Average Tumor Volume, Mean ([1]; 1 mg/kg IP QD, Day 12): 312 mm^3 | Average Tumor Volume, Mean ([1]; 1 mg/kg IP QD, Day 14): 415^† mm^3 | Average Tumor Volume, Mean ([1]; 1 mg/kg IP QD, Day 16): 566^†† mm^3 | Average Tumor Volume, Mean ([1]; 1 mg/kg IP QD, Day 18): 768^‡ mm^3 | inhibition in tumor volume (TGI) ([1]; IP BID (1 mg/kg), day 14, p<0.01): 57.6% | inhibition in tumor volume (TGI) ([1]; IP QD (1 mg/kg), day 14, p<0.05): 46.1% | Integrin Selectivity EC50 α1b1/Collagen IV (α1b1/Collagen IV): Not Active
